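Following 48 hours of exposure in 96-well plates, responses at five concentrations were used to interpolate endpoints linearly. GI50 marks 50% less growth.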 Active and inactive are the calls of the source. Cut-off read from the data, not from the text of the source: active = GI50 up to about 1.1 µM and inactive = higher.
Tests used:
Test in all cases: growth of human tumour cells (NCI), 48 h
786-0 = tested on: 786-0
A549 = tested on: A549
ACHN = tested on: ACHN
BT-549 = tested on: BT-549
CAKI-1 = tested on: CAKI-1
CCRF-CEM = tested on: CCRF-CEM
COLO 205 = tested on: COLO 205
DU-145 = tested on: DU-145
EKVX = tested on: EKVX
HCT-116 = tested on: HCT-116
HCT-15 = tested on: HCT-15
HL-60 = tested on: HL-60
HOP-92 = tested on: HOP-92
HT-29 = tested on: HT-29
Hs-578T = tested on: Hs-578T
IGROV-1 = tested on: IGROV-1
K562 = tested on: K562
KM12 = tested on: KM12
M14 = tested on: M14
MCF7 = tested on: MCF7
MDA-MB-231 = tested on: MDA-MB-231
MDA-MB-435 = tested on: MDA-MB-435
MDA-N = tested on: MDA-N
MOLT-4 = tested on: MOLT-4
Malme-3M = tested on: Malme-3M
NCI-H226 = tested on: NCI-H226
NCI-H23 = tested on: NCI-H23
NCI-H460 = tested on: NCI-H460
NCI-H522 = tested on: NCI-H522
NCI/ADR-RES = tested on: NCI/ADR-RES
OVCAR-4 = tested on: OVCAR-4
OVCAR-5 = tested on: OVCAR-5
OVCAR-8 = tested on: OVCAR-8
PC-3 = tested on: PC-3
RPMI-8226 = tested on: RPMI-8226
RXF 393 = tested on: RXF 393
SF-268 = tested on: SF-268
SF-295 = tested on: SF-295
SF-539 = tested on: SF-539
SK-MEL-2 = tested on: SK-MEL-2
SK-MEL-5 = tested on: SK-MEL-5
SK-OV-3 = tested on: SK-OV-3
SN12C = tested on: SN12C
SNB-19 = tested on: SNB-19
SNB-75 = tested on: SNB-75
SR = tested on: SR
SW-620 = tested on: SW-620
T47D = tested on: T47D
TK-10 = tested on: TK-10
U-251 = tested on: U-251
UACC-257 = tested on: UACC-257
UACC-62 = tested on: UACC-62
UO-31 = tested on: UO-31
HCC 2998 = tested on: HCC 2998
HOP-62 = tested on: HOP-62
OVCAR-3 = tested on: OVCAR-3
SK-MEL-28 = tested on: SK-MEL-28
A498 = tested on: A498
LOX IMVI = tested on: LOX IMVI

Measured: GI50

CC(NC(=O)c1ccccc1)NC(=O)C(C)C(=O)Nc1ccccc1 (stereo unspecified)
> 100 µM: HCT-15
inactive: 786-0 > 100 µM | A549 > 100 µM | ACHN > 100 µM | BT-549 > 100 µM | CAKI-1 > 100 µM | CCRF-CEM > 100 µM | COLO 205 > 100 µM | DU-145 > 100 µM | EKVX > 100 µM | HCT-116 > 100 µM | HL-60 > 100 µM | HOP-92 49.1 µM | HT-29 > 100 µM | Hs-578T 32.2 µM | IGROV-1 > 100 µM | K562 > 100 µM | KM12 > 100 µM | M14 > 100 µM | MCF7 > 100 µM | MDA-MB-231 > 100 µM | MDA-MB-435 > 100 µM | MDA-N > 100 µM | MOLT-4 > 100 µM | Malme-3M > 100 µM | NCI-H226 89.5 µM | NCI-H23 > 100 µM | NCI-H460 > 100 µM | NCI-H522 > 100 µM | NCI/ADR-RES > 100 µM | OVCAR-4 > 100 µM | OVCAR-5 > 100 µM | OVCAR-8 94.6 µM | PC-3 > 100 µM | RPMI-8226 > 100 µM | RXF 393 89.1 µM | SF-268 62.2 µM | SF-295 > 100 µM | SF-539 > 100 µM | SK-MEL-2 > 100 µM | SK-MEL-5 > 100 µM | SK-OV-3 > 100 µM | SN12C > 100 µM | SNB-19 27.4 µM | SNB-75 33.3 µM | SR > 100 µM | SW-620 > 100 µM | T47D > 100 µM | TK-10 75.2 µM | U-251 > 100 µM | UACC-257 > 100 µM | UACC-62 > 100 µM | UO-31 > 100 µM

CC(NC(=O)C(CC(=O)OCc1ccccc1)NC(=O)OCc1ccccc1)c1ccccc1 (stereo unspecified)
inactive: 786-0 49.2 µM | A549 73.5 µM | ACHN 67.5 µM | BT-549 > 100 µM | CAKI-1 83.4 µM | COLO 205 > 100 µM | DU-145 > 100 µM | EKVX > 100 µM | HCC 2998 > 100 µM | HOP-62 49.2 µM | HT-29 > 100 µM | Hs-578T > 100 µM | IGROV-1 > 100 µM | K562 > 100 µM | KM12 > 100 µM | M14 27.7 µM | MCF7 > 100 µM | MDA-MB-231 79.3 µM | MDA-MB-435 > 100 µM | MDA-N > 100 µM | MOLT-4 > 100 µM | Malme-3M 73.3 µM | NCI-H226 43.5 µM | NCI-H23 > 100 µM | NCI-H460 > 100 µM | NCI-H522 37.4 µM | NCI/ADR-RES > 100 µM | OVCAR-3 > 100 µM | OVCAR-5 > 100 µM | OVCAR-8 > 100 µM | PC-3 35.3 µM | RPMI-8226 > 100 µM | RXF 393 19.2 µM | SF-268 > 100 µM | SF-295 55.1 µM | SF-539 64.3 µM | SK-MEL-28 90.2 µM | SK-MEL-2 > 100 µM | SK-MEL-5 > 100 µM | SK-OV-3 83.2 µM | SN12C > 100 µM | SNB-19 48 µM | SNB-75 > 100 µM | SR > 100 µM | SW-620 > 100 µM | T47D > 100 µM | TK-10 > 100 µM | U-251 > 100 µM | UACC-257 > 10 µM | UACC-62 37.8 µM | UO-31 > 100 µM
> 100 µM: HCT-15

COC(=O)[C@]1(Cc2ccc3ccccc3c2)CCCCCCN1C(=O)c1ccccc1
> 31.8 µM: HCT-15
inactive: 786-0 > 37 µM | A498 > 36.1 µM | A549 > 100 µM | ACHN > 34.4 µM | BT-549 > 39.5 µM | CCRF-CEM > 23.9 µM | COLO 205 11.4 µM | DU-145 > 43.6 µM | EKVX > 27.7 µM | HCC 2998 > 34 µM | HCT-116 > 25.4 µM | HOP-62 > 30.1 µM | HOP-92 > 38.5 µM | HT-29 > 28.2 µM | Hs-578T 18.7 µM | IGROV-1 > 37.8 µM | K562 > 22 µM | KM12 > 34.1 µM | LOX IMVI 16.7 µM | M14 > 36.1 µM | MCF7 > 32.2 µM | MDA-MB-231 > 36.4 µM | MDA-MB-435 > 37.2 µM | MDA-N > 38 µM | MOLT-4 > 21.3 µM | Malme-3M > 38.5 µM | NCI-H226 > 37.9 µM | NCI-H23 > 29.3 µM | NCI-H460 > 34.4 µM | NCI/ADR-RES > 34 µM | OVCAR-3 > 24.9 µM | OVCAR-4 12.7 µM | OVCAR-5 > 38 µM | OVCAR-8 > 33.3 µM | PC-3 > 22.4 µM | RPMI-8226 4.15 µM | RXF 393 > 32.2 µM | SF-268 > 33.8 µM | SF-295 > 23.4 µM | SF-539 > 39.6 µM | SK-MEL-28 > 37.2 µM | SK-MEL-2 12.6 µM | SK-MEL-5 > 100 µM | SK-OV-3 > 49.1 µM | SN12C > 37 µM | SNB-19 > 44.6 µM | SNB-75 17.5 µM | SR > 100 µM | SW-620 > 40.8 µM | T47D > 30.3 µM | TK-10 > 36.6 µM | U-251 > 26.7 µM | UACC-257 12.5 µM | UACC-62 > 35.6 µM | UO-31 > 21 µM

Source: ChEMBL document CHEMBL1201862, “PubChem BioAssay data set” (2004)
